Values quoted from earlier work in patent publication US11667640B2, “Mitoketoscins: mitochondrial-based therapeutics targeting ketone metabolism in cancer cells” (LUNELLA BIOTECH, INC., priority 2017, dated 2023).

Target: T1, ACAT1 (Homo sapiens, UniProt P24752)
T1 sequence (P24752 34-427): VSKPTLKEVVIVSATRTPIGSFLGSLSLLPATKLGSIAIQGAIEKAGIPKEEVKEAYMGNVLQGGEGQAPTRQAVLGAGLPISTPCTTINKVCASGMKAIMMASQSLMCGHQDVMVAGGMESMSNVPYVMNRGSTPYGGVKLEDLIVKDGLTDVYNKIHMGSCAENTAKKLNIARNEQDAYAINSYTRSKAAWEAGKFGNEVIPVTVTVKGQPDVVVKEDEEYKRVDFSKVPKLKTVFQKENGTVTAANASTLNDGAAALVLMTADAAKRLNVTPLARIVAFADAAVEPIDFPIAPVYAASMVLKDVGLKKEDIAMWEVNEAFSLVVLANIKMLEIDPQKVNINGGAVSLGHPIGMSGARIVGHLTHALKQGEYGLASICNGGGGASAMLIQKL
Conditions: Garcia-Bermudez et al, Mol Cell 2016

COC(=O)C1=CCCN(C)C1 [Arecoline]
ACAT1 inhibition: potential ACAT1 inhibitor
